Measurements reported in ChEMBL document CHEMBL1201862, “PubChem BioAssay data set” (2004).
Active and inactive are the calls of the source.

Columns and labels:
[1] = biological target: Nonstructural protein 1 (Influenza A virus, UniProt Q194T2); assay type: functional, Influenza A virus (A/California/07/2009(H1N1))
[2] = system: BJ; experiment: BJ-TERT fibroblast viability loss – cell-based, RAS-independent, luminescence, dose response (AID 1933); assay type: functional; settings: Homo sapiens
[3] = system: BJ; experiment: cells; assay type: functional, cell-based; settings: Homo sapiens
[4] = system: BJ; experiment: BJ-TERT-LT-ST fibroblast viability loss – cell-based, RAS-independent, luminescence, dose response (AID 1935); assay type: functional; settings: Homo sapiens;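 further: BJ fibroblasts immortalized with TERT plus LT and ST oncogenes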
[5] = DRD fibroblast viability loss – cell-based, non-viral oncogenic, luminescence, dose response (AID 1934); assay type: functional; settings: Homo sapiens
[6] = biological target: T1, Carboxy-terminal domain RNA polymerase II polypeptide A small phosphatase 1 (Homo sapiens, UniProt Q9GZU7); experiment: CTDSP1 inhibitors, concentration-response, biochemical, absorbance readout, ultra-high-throughput screen actives (AID 540297); assay type: functional
T1 sequence (Q9GZU7 whole entry): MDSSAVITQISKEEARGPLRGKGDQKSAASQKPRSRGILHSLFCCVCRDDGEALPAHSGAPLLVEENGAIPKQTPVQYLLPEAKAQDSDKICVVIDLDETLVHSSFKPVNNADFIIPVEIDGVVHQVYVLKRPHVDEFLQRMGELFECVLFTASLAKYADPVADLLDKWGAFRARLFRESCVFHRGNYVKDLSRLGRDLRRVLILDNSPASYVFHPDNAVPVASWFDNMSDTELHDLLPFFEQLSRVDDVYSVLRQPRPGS

[7] = microbe, parasite or virus in culture; assay type: functional; settings: Mycobacterium tuberculosis
[8] = biological target: T2, Corticotropin-releasing factor receptor 2/Corticotropin-releasing factor-binding protein (Homo sapiens, UniProt P24387+Q13324); experiment: activators of CRF receptor 2 with binding protein – uHTS hits, confirmation (AID 602473); assay type: functional; settings: read-out: EC50_Mean
T2 sequence (Q13324 whole entry): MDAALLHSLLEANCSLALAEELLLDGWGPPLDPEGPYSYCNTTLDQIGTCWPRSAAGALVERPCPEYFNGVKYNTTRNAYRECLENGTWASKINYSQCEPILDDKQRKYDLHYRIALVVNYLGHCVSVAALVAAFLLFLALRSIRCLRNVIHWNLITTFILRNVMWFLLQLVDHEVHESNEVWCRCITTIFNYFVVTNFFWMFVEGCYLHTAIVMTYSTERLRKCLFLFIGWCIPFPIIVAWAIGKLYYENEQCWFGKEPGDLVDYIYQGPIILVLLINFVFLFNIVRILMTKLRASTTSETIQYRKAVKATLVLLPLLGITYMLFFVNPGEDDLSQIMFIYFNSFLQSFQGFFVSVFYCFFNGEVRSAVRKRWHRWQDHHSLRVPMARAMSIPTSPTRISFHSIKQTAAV
T2 sequence (P24387 whole entry): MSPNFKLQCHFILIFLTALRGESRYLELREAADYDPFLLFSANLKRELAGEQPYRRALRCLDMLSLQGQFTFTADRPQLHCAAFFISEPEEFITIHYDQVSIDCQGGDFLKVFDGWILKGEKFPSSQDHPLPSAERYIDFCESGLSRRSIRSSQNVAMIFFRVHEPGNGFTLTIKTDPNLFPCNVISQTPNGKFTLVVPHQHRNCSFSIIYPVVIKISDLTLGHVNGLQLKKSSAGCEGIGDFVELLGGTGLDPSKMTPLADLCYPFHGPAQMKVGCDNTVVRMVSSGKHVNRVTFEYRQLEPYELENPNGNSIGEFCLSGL

[9] = reduction of Shn3 3'UTR-driven luciferase in osteoblasts – cell-based, Clone20 osteoblasts, firefly luciferase, cherry-picked, dose response (AID 624132); assay type: functional;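 further: firefly luciferase luminescence from reporter carrying the Shn3 3'UTR in osteoblasts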
[10] = loss of viability in HepG2 cells – cell-based, CellTiter-Glo, cherry-picked, cytotoxicity control for Shn3 inhibitor project, dose response (AID 624134); assay type: functional
[11] = non-specific 3'UTR reporter inhibition in Clone20-Shn3RL – cell-based, Renilla luciferase, cherry-picked, counter-screen for Shn3 inhibitor project, dose response (AID 624133); assay type: functional
[12] = THP-1 cell cytotoxicity, dose response, cytotoxicity control for non-replicating M. tuberculosis project (AID 489025); assay type: functional
[13] = cells; assay type: functional
[14] = blockers of HIV-1 envelope-mediated cell-cell fusion – cherry-pick, dose response (AID 652057); assay type: functional, cell-based
[15] = blockers of HIV-1 ZM109 envelope-driven cell-cell fusion – HeLa effector, CEM target cells, luciferase, cherry-pick, dose response (AID 652058); assay type: functional, cell-based;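 further: luciferase signal from HIV-1 Env mediated cell-cell fusion of effector and target cells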
[16] = HIV-1 AD8 envelope cell-cell fusion blockers – cherry-pick, dose response (AID 652062); assay type: functional, cell-based;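 further: luciferase signal from cell-cell fusion driven by HIV-1 clade B AD8 Env; potency is for inhibitors of fusion seen as a drop in luminescence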
[17] = Trypanosoma cruzi growth suppression in host cells – NIH3T3 host cells, beta-gal luminescence, confirmation (AID 2044); assay type: functional, cell-based;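 further: intracellular parasites grown in NIH/3T3 mouse fibroblasts as host cells; luminescent beta-galactosidase reporter signal from transgenic T. cruzi replicating inside host cells; inhibitors lower the luminescence signal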
[18] = NIH3T3 cell viability loss – ATP luminescence, mouse fibroblasts, counter-screen, dose response (AID 2010); assay type: functional, cell-based;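 further: cells exposed to compound for about 90 hours before reading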
[19] = viability of uninfected HEp-2 cells – cell-based, HTS, cytotoxicity control for RSV inhibitor project, dose response (AID 2410); assay type: functional; settings: human respiratory syncytial virus
[20] = biological target: T3, Protein skinhead-1 (Caenorhabditis elegans, UniProt P34707); assay type: functional
T3 sequence (P34707 whole entry): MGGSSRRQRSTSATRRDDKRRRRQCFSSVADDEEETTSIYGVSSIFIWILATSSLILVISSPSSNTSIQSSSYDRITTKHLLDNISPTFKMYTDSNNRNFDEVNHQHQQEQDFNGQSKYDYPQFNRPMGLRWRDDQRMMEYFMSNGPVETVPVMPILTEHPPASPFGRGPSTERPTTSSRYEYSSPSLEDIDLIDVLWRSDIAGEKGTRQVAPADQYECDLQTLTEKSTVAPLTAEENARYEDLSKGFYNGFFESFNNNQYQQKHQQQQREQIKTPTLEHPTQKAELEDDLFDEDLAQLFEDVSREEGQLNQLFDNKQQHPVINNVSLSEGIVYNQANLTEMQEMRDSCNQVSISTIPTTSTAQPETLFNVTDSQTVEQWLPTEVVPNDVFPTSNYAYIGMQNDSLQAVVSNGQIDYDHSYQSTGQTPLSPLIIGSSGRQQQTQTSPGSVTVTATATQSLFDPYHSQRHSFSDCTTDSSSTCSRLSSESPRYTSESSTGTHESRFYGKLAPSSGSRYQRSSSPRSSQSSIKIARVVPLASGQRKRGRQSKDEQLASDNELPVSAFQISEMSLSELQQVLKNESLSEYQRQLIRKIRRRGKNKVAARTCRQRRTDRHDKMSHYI

[21] = Luminescence Cell-Based Dose Retest to Confirm Inhibitors of Cancer Stem Cells. [Related pubchem assays (depositor defined):AID2717, AID2721]; assay type: functional; settings: Homo sapiens
[22] = system: INS1; experiment: INS-1E survival protection against cytokine death – cell-based, luminescence, retest, dose response (AID 449756); assay type: functional; settings: Rattus norvegicus;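 further: cell death triggered by IL-1 beta plus TNF-alpha plus IFN-gamma mixture; protective hits raise ATP signal compared with cytokine alone wells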

Sequence of Nonstructural protein 1 (Q194T2 whole entry): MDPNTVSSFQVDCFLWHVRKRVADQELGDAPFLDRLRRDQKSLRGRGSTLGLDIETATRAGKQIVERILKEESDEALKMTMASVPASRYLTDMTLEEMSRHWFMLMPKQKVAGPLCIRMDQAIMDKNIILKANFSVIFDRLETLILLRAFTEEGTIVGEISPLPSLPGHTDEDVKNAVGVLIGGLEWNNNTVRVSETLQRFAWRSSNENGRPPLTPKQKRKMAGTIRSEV

For `Cc1cc(C)cc(-n2c(C)cc(C(=S)N3CCOCC3)c2C)c1`, the IC50 [1] was 95.6 µM (active).

With `O=C(c1ccccc1)c1ccc(-n2ccnc2)c([N+](=O)[O-])c1` the EC50 [2] was > 150 µM (not active), the EC50 [3] was > 150 µM (not active) and the EC50 [4] was > 150 µM (inconclusive). For the same compound, the EC50 [5] was > 150 µM (not active).

In the case of `Cc1ccc2[nH]c3nc(NN)nnc3c2c1`, the IC50 [1] is reported as 13.5 µM (active).

With `COc1ccc(NC(=O)NNC(=O)c2ccc(-c3ccccc3)cc2)cc1` the IC50 [6] was 4.6 µM (active).

With `COc1cccc2sc3ccc(C#CC4(N)CCCCC4)cc3c(=O)c12` the CC50 [7] was 20.1 µM (active).

For `Cc1ccc(S(=O)(=O)N2CCCCC2)cc1C(=O)Nc1cccnc1`, the IC50 [6] was 9.14 µM (active).

In the case of `COc1cc(OC)cc(N(C(=O)CNC(=O)c2cccs2)C(C(=O)NCC2CCCO2)c2ccc(OC)c(OC)c2)c1` (configuration not stated), the EC50 [8] is reported as > 53 µM (inactive).

For `CCOc1ccc(NC(=O)CN2C(=O)NC(C)(c3ccc(OC(F)F)cc3)C2=O)cc1` (configuration not stated), the EC50 [8] was 13.2 µM (active).

For `CCOc1ccc2c(c1)-c1c(ssc1=S)C(C)(C)N2C`, the IC50 [1] was 12.8 µM (active).

With `C=C[C@]1(C)C=C2C(=O)[C@@]3(O)OC(=O)[C@@]4(CCCC(C)(C)[C@H]34)[C@@]2(O)CC1` [SPHAEROPSIDIN A] the AC50 [9] was 4.98 µM (active), the AC50 [10] was 12 µM (active) and the AC50 [11] was 4.85 µM (active).

In the case of `Cc1ccc(NC(=O)COc2ccc(-n3ccnc3)cc2)cc1Cl`, the CC50 [12] is reported as > 40 µM (active) and the IC50 [13] is reported as 25.5 µM (active).

In the case of `O=C(C[C@H]1C[C@@H]2c3cc(NS(=O)(=O)c4ccc(F)cc4)ccc3O[C@@H]2[C@H](CO)O1)NCc1ccc(Cl)cc1`, the AC50 [14] is reported as 1.72 µM (active), the AC50 [15] is reported as 5.21 µM (active) and the AC50 [16] is reported as 4.14 µM (active).

In the case of `Cc1ccc(S(=O)(=O)NC2=C(N3CCN(Cc4ccccc4)CC3)C(=O)c3ccccc3C2=O)cc1`, the IC50 [1] is reported as 22.4 µM (active).

In the case of `COc1cccc(CNc2nc(NCC3CC3)nc3ccsc23)c1`, the AC50 [9] is reported as 5.86 µM (active), the AC50 [10] is reported as 43 µM (active) and the AC50 [11] is reported as 11.2 µM (active).

In the case of `CC1=CC(C)(C)N2C(=O)C(=O)c3cc(OC(=O)c4ccco4)cc1c32`, the EC50 [2] is reported as > 150 µM (not active), the EC50 [3] is reported as 11.6 µM (active) and the EC50 [4] is reported as 11.3 µM (inconclusive). For the same compound, the EC50 [5] was 11.2 µM (inconclusive).

For `COc1cc2ccccc2cc1C(=O)Nc1ccc(Cc2ccncc2)cc1`, the EC50 [17] was 1.99 µM (active), the CC50 [7] was 22 µM (active) and the EC50 [18] was 8.08 µM (active).

In the case of `O=C(Nc1nccs1)c1ccc(-c2ccc(Cl)cc2)o1`, the CC50 [19] is reported as > 50 µM (active), the CC50 [12] is reported as > 40 µM (active) and the IC50 [13] is reported as 25.6 µM (active). The IC50 [20] was > 100 µM (inactive).

For `Nc1ccc2cccc(O)c2c1`, the IC50 [6] was 4.61 µM (active).

In the case of `CCCS(=O)(=O)c1c(S(=O)(=O)CCC)c2c(C)cccn2c1C(=O)N/N=C/c1cc(O)cc(O)c1`, the EC50 [2] is reported as 23.5 µM (active), the EC50 [3] is reported as 20.2 µM (active) and the EC50 [4] is reported as 18.1 µM (active). For the same compound, the EC50 [5] was 27 µM (active) and the AC50 [21] was 2.52 µM (active).

For `Cn1nnnc1SCC1=C(C(=O)O)N2C(=O)C(NC(=O)C3CC3c3ccccc3)C2SC1` (configuration not stated), the IC50 [6] was 11.8 µM (active).

For `CCOc1cc(C)c(S(=O)(=O)Nc2ccc3c[nH]nc3c2)cc1C`, the AC50 [22] was 4.13 µM (active), the AC50 [9] was 4.89 µM (active) and the AC50 [10] was 36 µM (active).

With `COc1ccc2[nH]c(C)c(CCN(Cc3cccs3)C(S)=Nc3ccccc3)c2c1` the EC50 [17] was 2.82 µM (active), the EC50 [18] was > 60 µM (not active) and the IC50 [1] was > 100 µM (active).

With `C[C@@H]1CN([C@@H](C)CO)C(=O)c2cccc(NS(=O)(=O)c3ccccc3)c2O[C@@H]1CN(C)Cc1ccc(Cl)c(Cl)c1` the AC50 [14] was 2.93 µM (active), the AC50 [15] was 4.27 µM (active) and the AC50 [16] was 3.86 µM (active).

With `CCCCn1c(NCc2ccc3c(c2)OCO3)nc2ccccc21` the CC50 [7] was 39.6 µM (active).
